According to PubChem BioAssay (NCI):
Where “and” joins values, the source holds several entries; their conditions need not be identical. Identical values can stand only once.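 How tested: cells in 96-well plates exposed to compound for 48 hours at five concentrations. Abbreviation: GI50, concentration required for 50% inhibition of growth. TGI is the concentration that stops growth completely.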

Legend:
Assay in all cases: DTP human tumour cell line panel, 48 h
NCI-H522 lung = tested on: NCI-H522 lung
UACC-257 melanoma = tested on: UACC-257 melanoma
HCT-15 colon = tested on: HCT-15 colon
MCF7 breast = tested on: MCF7 breast
DU-145 prostate = tested on: DU-145 prostate
HOP-62 NSCLC = tested on: HOP-62 NSCLC
T-47D breast = tested on: T-47D breast
MDA-MB-231 breast = tested on: MDA-MB-231 breast
A549 NSCLC = tested on: A549 NSCLC
RPMI-8226 leukemia = tested on: RPMI-8226 leukemia

## CC(C)C1CN1CC(O)Cn1ccnc1[N+](=O)[O-] (stereo unspecified)
NCI-H522 lung
  TGI: > 100 µM
UACC-257 melanoma
  TGI: > 100 µM
HCT-15 colon
  TGI: > 100 µM
MCF7 breast
  TGI: > 100 µM
DU-145 prostate
  TGI: > 100 µM
HOP-62 NSCLC
  TGI: > 100 µM
T-47D breast
  TGI: > 100 µM
MDA-MB-231 breast
  TGI: > 100 µM
A549 NSCLC
  TGI: > 100 µM

## O=C1c2ccn(CCCCN3CCOCC3)c2C(=O)c2c1c(O)c1ccccc1c2O
NCI-H522 lung
  GI50: 40.3 µM
  TGI: > 100 µM
UACC-257 melanoma
  GI50: 8.43 µM
  TGI: 27.4 µM
HCT-15 colon
  GI50: 3.82 µM
  TGI: 25.5 µM
MCF7 breast
  GI50: 6.26 µM
  TGI: 24.8 µM
HOP-62 NSCLC
  GI50: 14.7 µM
  TGI: 34.5 µM
T-47D breast
  GI50: 8.45 µM
  TGI: 97.7 µM
RPMI-8226 leukemia
  GI50: 3.53 µM
  TGI: > 100 µM
MDA-MB-231 breast
  GI50: 12.7 µM
  TGI: 32.4 µM
A549 NSCLC
  GI50: 14.4 µM
  TGI: 38.7 µM

## CS(=O)(=O)C1S(=O)(=O)OCCOS1(=O)=O
NCI-H522 lung
  TGI: > 100 µM
UACC-257 melanoma
  TGI: > 100 µM
HOP-62 NSCLC
  TGI: > 100 µM
RPMI-8226 leukemia
  TGI: > 100 µM
A549 NSCLC
  TGI: > 100 µM

## COC(=O)N1[C@H]2Cc3c(OC)c(C)c(OC)c(OC)c3[C@@H]1/C(=C\c1cc(OC)c(OC)c(C)c1OC)N(Cc1ccccc1)C2=O
NCI-H522 lung
  TGI: 37.2 µM
UACC-257 melanoma
  TGI: > 100 µM
HOP-62 NSCLC
  TGI: > 100 µM
RPMI-8226 leukemia
  TGI: > 100 µM
A549 NSCLC
  TGI: > 100 µM

## CS(=O)(=O)NNS(=O)(=O)c1ccc(Br)cc1
NCI-H522 lung
  TGI: > 100 µM
UACC-257 melanoma
  TGI: > 100 µM
HCT-15 colon
  TGI: > 100 µM
HOP-62 NSCLC
  TGI: > 100 µM
RPMI-8226 leukemia
  TGI: > 100 µM
A549 NSCLC
  TGI: > 100 µM

## COc1ccc(CC(=O)c2cc(OC)c(OC)cc2C)cc1OC
NCI-H522 lung
  TGI: > 100 µM
UACC-257 melanoma
  TGI: 75.8 µM
HCT-15 colon
  TGI: > 100 µM
HOP-62 NSCLC
  TGI: > 100 µM
RPMI-8226 leukemia
  TGI: > 100 µM
A549 NSCLC
  TGI: > 100 µM

## C=C1C(=O)O[C@@H]2C[C@]3(C)[C@@H](C[C@H]12)[C@](C)(O)CC[C@@H]3O
NCI-H522 lung
  TGI: > 100 µM
HCT-15 colon
  TGI: > 100 µM
HOP-62 NSCLC
  TGI: > 100 µM
RPMI-8226 leukemia
  TGI: > 100 µM
A549 NSCLC
  TGI: > 100 µM

## COc1ccc(-c2cc(C(=O)Nc3cccc(C(F)(F)F)c3)[nH]c(=S)n2)cc1
NCI-H522 lung
  TGI: > 100 µM
UACC-257 melanoma
  TGI: > 100 µM
HCT-15 colon
  TGI: > 100 µM
HOP-62 NSCLC
  TGI: > 100 µM
RPMI-8226 leukemia
  TGI: > 100 µM
A549 NSCLC
  TGI: > 100 µM

## O=C1CCC2(c3ccc(F)cc3)Nc3ccccc3N12 (stereo unspecified)
NCI-H522 lung
  TGI: > 100 µM
UACC-257 melanoma
  TGI: > 100 µM
HCT-15 colon
  TGI: > 100 µM
HOP-62 NSCLC
  TGI: > 100 µM
RPMI-8226 leukemia
  TGI: > 100 µM
A549 NSCLC
  TGI: > 100 µM

## COC(=O)C(=O)C(C(=O)C(=O)Nc1ccccc1C(=O)OC)c1nc2ccc(C(=O)c3ccccc3)cc2[nH]c1=O (stereo unspecified)
NCI-H522 lung
  TGI: > 100 µM
UACC-257 melanoma
  TGI: > 100 µM
HCT-15 colon
  TGI: > 100 µM
MCF7 breast
  TGI: > 100 µM
HOP-62 NSCLC
  TGI: > 100 µM
T-47D breast
  TGI: > 100 µM
RPMI-8226 leukemia
  TGI: > 100 µM
MDA-MB-231 breast
  TGI: > 100 µM
A549 NSCLC
  TGI: > 100 µM

## O=C(Cc1ccccc1)Oc1ccc2c(-c3ccccc3)c(C(=O)Nc3ccc(Cl)cc3)c(=O)oc2c1
NCI-H522 lung
  TGI: > 100 µM
UACC-257 melanoma
  TGI: > 100 µM
HCT-15 colon
  TGI: > 100 µM
HOP-62 NSCLC
  TGI: > 100 µM
RPMI-8226 leukemia
  TGI: > 100 µM
A549 NSCLC
  TGI: > 100 µM

## O=CC1=CCCC2(C1)OCCO2
NCI-H522 lung
  TGI: > 100 µM
UACC-257 melanoma
  TGI: > 100 µM
HCT-15 colon
  TGI: > 100 µM
HOP-62 NSCLC
  TGI: > 100 µM
RPMI-8226 leukemia
  TGI: > 100 µM
A549 NSCLC
  TGI: > 100 µM

## COc1ccc(-c2cc3c4c(nc5ccccc5c4c2)CC(c2cc(OC)c(OC)c(OC)c2)O3)cc1 (stereo unspecified)
NCI-H522 lung
  GI50: 2.63 µM
  TGI: 13.9 µM
UACC-257 melanoma
  GI50: 3.93 µM
  TGI: > 100 µM
HCT-15 colon
  GI50: 3.73 µM
  TGI: > 100 µM
MCF7 breast
  GI50: 2.36 µM
  TGI: 79.5 µM
DU-145 prostate
  GI50: 2.96 µM
  TGI: > 100 µM
HOP-62 NSCLC
  GI50: 2.98 µM
  TGI: 12.5 µM
T-47D breast
  GI50: 2.34 µM
  TGI: 7.53 µM
RPMI-8226 leukemia
  GI50: 3.66 µM
  TGI: > 100 µM
MDA-MB-231 breast
  GI50: 2.15 µM
  TGI: 7.16 µM

## COC(=O)/C(=C/c1ccc(OC)cc1)C(C(=O)O)=C(C)C
NCI-H522 lung
  TGI: > 100 µM
UACC-257 melanoma
  TGI: > 100 µM
HCT-15 colon
  TGI: > 100 µM
HOP-62 NSCLC
  TGI: > 100 µM
RPMI-8226 leukemia
  TGI: > 100 µM
A549 NSCLC
  TGI: > 100 µM

## CN(C)CCNC(=O)c1ccc2ccc3cccnc3c2n1
NCI-H522 lung
  TGI: 25.5 µM
UACC-257 melanoma
  TGI: 35.4 µM
HCT-15 colon
  TGI: 63.5 µM
HOP-62 NSCLC
  TGI: 63.1 µM
A549 NSCLC
  TGI: > 52.9 µM

## CCCCOC1CC2(c3ccc(OC)cc3)C(=O)c3ccccc3N2O1 (stereo unspecified)
NCI-H522 lung
  TGI: 81.2 µM
UACC-257 melanoma
  TGI: 70.1 µM
HCT-15 colon
  TGI: > 10 µM
RPMI-8226 leukemia
  TGI: 65.7 µM
A549 NSCLC
  TGI: > 100 µM

## Cc1oc2ccccc2c(=O)c1Cn1nnc2ccccc21
UACC-257 melanoma
  TGI: 66.9 µM
HCT-15 colon
  TGI: > 100 µM
MCF7 breast
  TGI: 49.2 µM
DU-145 prostate
  TGI: > 100 µM
HOP-62 NSCLC
  TGI: > 100 µM
T-47D breast
  TGI: 44.2 µM
RPMI-8226 leukemia
  TGI: > 100 µM
MDA-MB-231 breast
  TGI: > 100 µM
A549 NSCLC
  TGI: > 100 µM

## O=C(NC1CCCCC1)c1c(O)[nH]c(=S)[nH]c1=O
NCI-H522 lung
  TGI: > 100 µM
UACC-257 melanoma
  TGI: > 100 µM
HCT-15 colon
  TGI: > 100 µM
HOP-62 NSCLC
  TGI: > 100 µM
RPMI-8226 leukemia
  TGI: > 100 µM
A549 NSCLC
  TGI: > 100 µM

## CC(C)(C)C1CC[C@H]2c3c([nH]c4ccc(Br)cc34)[C@H]3C(=O)N(c4ccccc4)C(=O)[C@H]3[C@H]2C1 (stereo partly specified)
NCI-H522 lung
  TGI: 69.3 µM
UACC-257 melanoma
  TGI: > 100 µM
HOP-62 NSCLC
  TGI: > 100 µM
RPMI-8226 leukemia
  TGI: > 100 µM
A549 NSCLC
  TGI: > 100 µM

## [Cu+2].[Cu+2].[O-]c1ccccc1C=Nc1ccccc1[O-].[O-]c1ccccc1C=Nc1ccccc1[O-]
NCI-H522 lung
  GI50: 2.39 µM
  TGI: 6.24 µM
UACC-257 melanoma
  GI50: 10.4 µM
  TGI: 22.3 µM
HCT-15 colon
  GI50: 7.25 µM
  TGI: 21.5 µM
HOP-62 NSCLC
  GI50: 21.9 µM
  TGI: 36.6 µM
RPMI-8226 leukemia
  GI50: 3.5 µM
  TGI: 54.6 µM
A549 NSCLC
  GI50: 7.56 µM
  TGI: 27.8 µM

## COc1ccc(CNc2cc(OC)cc(OC)c2)cc1
NCI-H522 lung
  TGI: > 100 µM
UACC-257 melanoma
  TGI: > 100 µM
HCT-15 colon
  GI50: > 100 µM and 46.6 µM
  TGI: > 100 µM
HOP-62 NSCLC
  TGI: > 100 µM
RPMI-8226 leukemia
  TGI: > 100 µM
A549 NSCLC
  TGI: > 100 µM

## O=C(NO)c1ccc(C(=O)NO)cc1
UACC-257 melanoma
  TGI: > 100 µM
HCT-15 colon
  TGI: > 100 µM
MCF7 breast
  TGI: > 100 µM
DU-145 prostate
  TGI: > 100 µM
HOP-62 NSCLC
  TGI: > 100 µM
T-47D breast
  TGI: > 100 µM
RPMI-8226 leukemia
  TGI: > 100 µM
MDA-MB-231 breast
  TGI: > 100 µM
A549 NSCLC
  TGI: > 100 µM

## C=CCN1C(=O)CS/C1=N\NC(=O)c1c(C)nc2sccn12
NCI-H522 lung
  TGI: > 100 µM
UACC-257 melanoma
  TGI: > 100 µM
HCT-15 colon
  TGI: > 100 µM
HOP-62 NSCLC
  TGI: > 100 µM
RPMI-8226 leukemia
  TGI: > 100 µM
A549 NSCLC
  TGI: > 100 µM

## COc1cc2c(cc1OC)C13CCN4CC5=CCOC(CC(=O)O)C(C5CC41)C3N2 (stereo unspecified)
NCI-H522 lung
  TGI: > 100 µM
UACC-257 melanoma
  TGI: > 100 µM
HCT-15 colon
  TGI: > 100 µM
MCF7 breast
  TGI: > 100 µM
HOP-62 NSCLC
  TGI: > 100 µM
RPMI-8226 leukemia
  TGI: > 100 µM
MDA-MB-231 breast
  TGI: > 100 µM
A549 NSCLC
  TGI: > 100 µM

## CN(C(=O)C1CCCCC1)c1ccccc1I(=O)=O
NCI-H522 lung
  GI50: 16.3 µM
  TGI: 30.2 µM
UACC-257 melanoma
  GI50: 63.6 µM
  TGI: > 100 µM
HCT-15 colon
  GI50: 23.3 µM
  TGI: 59.2 µM
MCF7 breast
  GI50: 43.7 µM
  TGI: > 100 µM
DU-145 prostate
  GI50: 55.9 µM
  TGI: > 100 µM
T-47D breast
  GI50: 16.4 µM
  TGI: 44.2 µM
RPMI-8226 leukemia
  GI50: 12.9 µM
  TGI: 33.7 µM
MDA-MB-231 breast
  GI50: 70 µM
  TGI: > 100 µM
A549 NSCLC
  GI50: 55.9 µM
  TGI: > 100 µM
